# Legend:
# [1] = target: T1, Tyrosine-protein kinase Tec (Homo sapiens) (UniProt P42680); settings: at 10 µM
# T1 sequence (whole entry): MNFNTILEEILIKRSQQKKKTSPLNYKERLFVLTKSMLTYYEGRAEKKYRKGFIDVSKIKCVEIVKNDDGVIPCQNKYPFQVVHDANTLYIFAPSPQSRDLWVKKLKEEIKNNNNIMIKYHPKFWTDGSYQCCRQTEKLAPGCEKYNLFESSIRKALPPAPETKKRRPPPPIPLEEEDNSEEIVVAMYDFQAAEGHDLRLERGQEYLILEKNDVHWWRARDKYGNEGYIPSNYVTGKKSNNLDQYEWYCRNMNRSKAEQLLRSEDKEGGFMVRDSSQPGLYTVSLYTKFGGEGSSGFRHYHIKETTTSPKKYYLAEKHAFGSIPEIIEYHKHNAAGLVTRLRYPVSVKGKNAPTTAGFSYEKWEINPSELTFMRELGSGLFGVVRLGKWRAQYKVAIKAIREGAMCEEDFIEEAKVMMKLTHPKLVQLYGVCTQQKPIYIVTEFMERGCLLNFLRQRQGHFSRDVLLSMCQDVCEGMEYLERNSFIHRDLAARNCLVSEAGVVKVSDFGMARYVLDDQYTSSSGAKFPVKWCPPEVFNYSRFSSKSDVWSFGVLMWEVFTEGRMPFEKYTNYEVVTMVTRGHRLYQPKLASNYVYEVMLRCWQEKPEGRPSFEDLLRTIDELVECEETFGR
# [2] = target: T2, Tyrosine-protein kinase Mer (Homo sapiens) (UniProt Q12866); assay: Selectivity interaction (Kinase panel (DSF assay)) EUB0001558a MERTK
# T2 sequence (whole entry): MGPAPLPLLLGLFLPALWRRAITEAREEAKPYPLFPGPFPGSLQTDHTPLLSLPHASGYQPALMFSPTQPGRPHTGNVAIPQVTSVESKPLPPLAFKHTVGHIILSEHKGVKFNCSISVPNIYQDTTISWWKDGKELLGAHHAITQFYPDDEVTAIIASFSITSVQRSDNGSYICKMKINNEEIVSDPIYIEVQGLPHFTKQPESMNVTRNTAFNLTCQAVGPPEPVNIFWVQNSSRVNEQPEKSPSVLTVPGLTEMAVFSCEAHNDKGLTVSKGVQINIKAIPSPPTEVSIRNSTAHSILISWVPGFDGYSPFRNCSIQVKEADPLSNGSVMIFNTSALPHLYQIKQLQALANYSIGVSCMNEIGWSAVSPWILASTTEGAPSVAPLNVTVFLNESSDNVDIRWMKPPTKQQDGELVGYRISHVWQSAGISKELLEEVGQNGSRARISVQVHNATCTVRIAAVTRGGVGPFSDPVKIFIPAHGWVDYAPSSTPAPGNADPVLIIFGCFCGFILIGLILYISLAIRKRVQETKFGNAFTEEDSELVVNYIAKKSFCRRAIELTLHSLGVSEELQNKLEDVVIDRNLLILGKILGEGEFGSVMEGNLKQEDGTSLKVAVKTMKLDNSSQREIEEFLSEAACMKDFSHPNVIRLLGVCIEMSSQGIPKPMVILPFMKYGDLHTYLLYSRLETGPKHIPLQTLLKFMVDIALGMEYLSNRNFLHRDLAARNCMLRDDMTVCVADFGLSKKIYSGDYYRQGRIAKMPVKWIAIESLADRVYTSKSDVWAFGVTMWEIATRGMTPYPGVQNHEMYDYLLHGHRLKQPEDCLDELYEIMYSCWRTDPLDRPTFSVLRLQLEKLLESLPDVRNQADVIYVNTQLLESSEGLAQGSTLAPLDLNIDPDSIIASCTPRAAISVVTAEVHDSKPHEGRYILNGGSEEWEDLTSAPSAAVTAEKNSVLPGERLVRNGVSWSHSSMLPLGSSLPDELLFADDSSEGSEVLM
# [3] = target: Ribosomal protein S6 kinase alpha-1 (Homo sapiens, UniProt Q15418); assay: Selectivity interaction (Upstate Kinase Profiler service (Millipore)) EUB0000056c RPS6KA1; settings: at 1 µM
# [4] = target: Rho-associated protein kinase 2 (Homo sapiens, UniProt O75116); settings: at 10 µM
# [5] = target: Glycogen synthase kinase-3 alpha (Homo sapiens, UniProt P49840); assay: Selectivity interaction (Rxn Biology Kinase assay) EUB0001632a GSK3A; settings: at 10 µM
# [6] = target: Serine/threonine-protein kinase ATR (Homo sapiens) (UniProt Q13535); assay: Selectivity interaction (ActivX KiNativ screen (kinase selectivity in THP-1 cell lysates)) EUB0000639a ATR; format: subcellular; settings: lysate
# [7] = target: T3, Histone-lysine N-methyltransferase SUV39H1 (Homo sapiens) (UniProt O43463); assay: Selectivity interaction (Methyltransferase screen (radiometric assays, panel of 8 PRMTs, 21 protein lysine methyltransferases, 3 DNA methyltransferases, and one RNA methyltransferase)) EUB0000271b SUV39H1
# T3 sequence (whole entry): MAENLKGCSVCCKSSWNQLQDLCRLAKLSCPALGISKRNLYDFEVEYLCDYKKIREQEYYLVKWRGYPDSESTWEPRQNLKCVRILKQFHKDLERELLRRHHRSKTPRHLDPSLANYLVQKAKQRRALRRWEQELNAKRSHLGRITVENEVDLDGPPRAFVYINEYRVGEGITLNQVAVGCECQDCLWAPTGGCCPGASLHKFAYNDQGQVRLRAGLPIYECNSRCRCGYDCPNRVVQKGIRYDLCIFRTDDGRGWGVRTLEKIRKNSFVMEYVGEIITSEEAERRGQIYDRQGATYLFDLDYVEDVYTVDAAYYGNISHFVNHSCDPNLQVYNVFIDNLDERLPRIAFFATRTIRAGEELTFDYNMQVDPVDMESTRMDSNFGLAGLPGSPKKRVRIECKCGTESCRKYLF
# Sequence of Serine/threonine-protein kinase ATR (Homo sapiens) (Q13535 whole entry, looked up): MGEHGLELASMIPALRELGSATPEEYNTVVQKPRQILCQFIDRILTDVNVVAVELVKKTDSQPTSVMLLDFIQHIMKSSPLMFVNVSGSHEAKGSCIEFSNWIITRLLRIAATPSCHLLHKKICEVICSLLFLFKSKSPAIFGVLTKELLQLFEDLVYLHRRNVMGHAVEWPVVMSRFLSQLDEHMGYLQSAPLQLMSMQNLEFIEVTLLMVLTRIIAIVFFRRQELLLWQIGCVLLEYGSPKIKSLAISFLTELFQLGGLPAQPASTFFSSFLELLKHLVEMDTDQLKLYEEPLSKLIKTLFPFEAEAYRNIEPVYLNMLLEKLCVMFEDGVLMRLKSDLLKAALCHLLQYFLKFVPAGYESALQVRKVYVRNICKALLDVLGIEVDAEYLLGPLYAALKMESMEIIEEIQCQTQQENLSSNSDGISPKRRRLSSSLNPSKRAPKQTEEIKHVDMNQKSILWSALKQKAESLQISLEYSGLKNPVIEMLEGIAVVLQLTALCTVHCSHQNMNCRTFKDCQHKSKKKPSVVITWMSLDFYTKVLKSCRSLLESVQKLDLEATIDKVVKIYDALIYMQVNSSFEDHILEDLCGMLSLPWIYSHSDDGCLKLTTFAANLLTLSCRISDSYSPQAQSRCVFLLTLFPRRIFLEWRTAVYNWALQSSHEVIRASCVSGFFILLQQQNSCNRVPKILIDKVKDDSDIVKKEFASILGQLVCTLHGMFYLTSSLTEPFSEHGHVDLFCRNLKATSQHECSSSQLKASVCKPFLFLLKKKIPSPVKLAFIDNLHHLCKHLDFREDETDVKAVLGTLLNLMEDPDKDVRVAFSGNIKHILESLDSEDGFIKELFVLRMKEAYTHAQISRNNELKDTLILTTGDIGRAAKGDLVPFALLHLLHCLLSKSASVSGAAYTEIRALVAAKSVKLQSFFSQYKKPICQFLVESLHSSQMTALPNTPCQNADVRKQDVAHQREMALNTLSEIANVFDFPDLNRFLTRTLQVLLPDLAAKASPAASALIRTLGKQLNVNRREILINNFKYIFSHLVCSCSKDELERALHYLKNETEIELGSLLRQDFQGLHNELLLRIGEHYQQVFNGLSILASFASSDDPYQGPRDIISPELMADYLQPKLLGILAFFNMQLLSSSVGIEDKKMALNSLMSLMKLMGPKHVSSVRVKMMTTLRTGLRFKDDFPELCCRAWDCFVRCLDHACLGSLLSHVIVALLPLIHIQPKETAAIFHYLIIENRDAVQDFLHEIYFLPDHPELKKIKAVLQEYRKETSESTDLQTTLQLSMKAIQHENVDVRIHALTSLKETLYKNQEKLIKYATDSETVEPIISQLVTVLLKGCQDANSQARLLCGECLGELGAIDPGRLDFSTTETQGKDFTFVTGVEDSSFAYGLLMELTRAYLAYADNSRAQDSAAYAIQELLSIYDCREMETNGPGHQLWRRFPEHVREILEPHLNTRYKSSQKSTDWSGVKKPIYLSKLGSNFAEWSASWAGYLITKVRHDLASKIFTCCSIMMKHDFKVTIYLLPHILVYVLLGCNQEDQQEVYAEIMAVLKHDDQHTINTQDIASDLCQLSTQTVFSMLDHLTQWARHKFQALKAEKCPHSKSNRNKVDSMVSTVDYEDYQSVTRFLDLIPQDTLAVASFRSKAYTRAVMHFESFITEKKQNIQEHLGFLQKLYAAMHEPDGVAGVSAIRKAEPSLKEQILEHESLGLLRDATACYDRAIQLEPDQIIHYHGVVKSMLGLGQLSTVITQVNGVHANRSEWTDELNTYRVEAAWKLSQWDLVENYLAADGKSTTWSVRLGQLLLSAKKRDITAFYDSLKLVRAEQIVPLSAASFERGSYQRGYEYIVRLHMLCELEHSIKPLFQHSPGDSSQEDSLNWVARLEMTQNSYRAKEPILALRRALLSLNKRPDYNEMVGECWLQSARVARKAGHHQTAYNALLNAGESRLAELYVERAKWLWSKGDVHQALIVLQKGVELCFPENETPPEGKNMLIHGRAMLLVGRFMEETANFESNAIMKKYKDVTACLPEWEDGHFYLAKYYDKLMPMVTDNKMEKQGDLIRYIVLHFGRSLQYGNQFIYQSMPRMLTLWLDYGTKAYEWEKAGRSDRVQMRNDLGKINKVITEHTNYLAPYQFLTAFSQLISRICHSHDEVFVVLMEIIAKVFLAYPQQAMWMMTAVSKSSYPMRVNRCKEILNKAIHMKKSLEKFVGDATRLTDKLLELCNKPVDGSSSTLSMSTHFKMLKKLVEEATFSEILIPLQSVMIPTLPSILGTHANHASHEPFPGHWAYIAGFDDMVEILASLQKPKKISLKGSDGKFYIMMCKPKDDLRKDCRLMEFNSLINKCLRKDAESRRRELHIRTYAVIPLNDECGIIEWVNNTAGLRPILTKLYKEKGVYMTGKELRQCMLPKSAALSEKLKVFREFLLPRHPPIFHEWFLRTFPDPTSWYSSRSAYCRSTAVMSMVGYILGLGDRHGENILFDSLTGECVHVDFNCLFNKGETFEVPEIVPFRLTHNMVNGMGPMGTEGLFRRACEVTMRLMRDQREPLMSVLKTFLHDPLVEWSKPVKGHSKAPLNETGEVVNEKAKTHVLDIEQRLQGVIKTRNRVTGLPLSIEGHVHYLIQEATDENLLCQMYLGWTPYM
# Sequence of Glycogen synthase kinase-3 alpha (P49840 2-483 limits assumed): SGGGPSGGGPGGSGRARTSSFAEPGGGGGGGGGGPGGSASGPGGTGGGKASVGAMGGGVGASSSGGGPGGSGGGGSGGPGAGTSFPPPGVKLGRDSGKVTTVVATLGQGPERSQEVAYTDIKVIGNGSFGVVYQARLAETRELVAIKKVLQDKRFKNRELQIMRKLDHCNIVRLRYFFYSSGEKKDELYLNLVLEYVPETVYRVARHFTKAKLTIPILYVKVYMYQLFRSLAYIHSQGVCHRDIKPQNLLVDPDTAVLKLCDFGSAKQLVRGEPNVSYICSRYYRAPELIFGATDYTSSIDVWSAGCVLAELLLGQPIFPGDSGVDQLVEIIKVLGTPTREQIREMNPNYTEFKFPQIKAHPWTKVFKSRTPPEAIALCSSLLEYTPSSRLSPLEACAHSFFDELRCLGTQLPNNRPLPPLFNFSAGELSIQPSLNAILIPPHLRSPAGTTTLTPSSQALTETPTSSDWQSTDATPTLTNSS
# Sequence of Rho-associated protein kinase 2 (O75116 whole entry, looked up): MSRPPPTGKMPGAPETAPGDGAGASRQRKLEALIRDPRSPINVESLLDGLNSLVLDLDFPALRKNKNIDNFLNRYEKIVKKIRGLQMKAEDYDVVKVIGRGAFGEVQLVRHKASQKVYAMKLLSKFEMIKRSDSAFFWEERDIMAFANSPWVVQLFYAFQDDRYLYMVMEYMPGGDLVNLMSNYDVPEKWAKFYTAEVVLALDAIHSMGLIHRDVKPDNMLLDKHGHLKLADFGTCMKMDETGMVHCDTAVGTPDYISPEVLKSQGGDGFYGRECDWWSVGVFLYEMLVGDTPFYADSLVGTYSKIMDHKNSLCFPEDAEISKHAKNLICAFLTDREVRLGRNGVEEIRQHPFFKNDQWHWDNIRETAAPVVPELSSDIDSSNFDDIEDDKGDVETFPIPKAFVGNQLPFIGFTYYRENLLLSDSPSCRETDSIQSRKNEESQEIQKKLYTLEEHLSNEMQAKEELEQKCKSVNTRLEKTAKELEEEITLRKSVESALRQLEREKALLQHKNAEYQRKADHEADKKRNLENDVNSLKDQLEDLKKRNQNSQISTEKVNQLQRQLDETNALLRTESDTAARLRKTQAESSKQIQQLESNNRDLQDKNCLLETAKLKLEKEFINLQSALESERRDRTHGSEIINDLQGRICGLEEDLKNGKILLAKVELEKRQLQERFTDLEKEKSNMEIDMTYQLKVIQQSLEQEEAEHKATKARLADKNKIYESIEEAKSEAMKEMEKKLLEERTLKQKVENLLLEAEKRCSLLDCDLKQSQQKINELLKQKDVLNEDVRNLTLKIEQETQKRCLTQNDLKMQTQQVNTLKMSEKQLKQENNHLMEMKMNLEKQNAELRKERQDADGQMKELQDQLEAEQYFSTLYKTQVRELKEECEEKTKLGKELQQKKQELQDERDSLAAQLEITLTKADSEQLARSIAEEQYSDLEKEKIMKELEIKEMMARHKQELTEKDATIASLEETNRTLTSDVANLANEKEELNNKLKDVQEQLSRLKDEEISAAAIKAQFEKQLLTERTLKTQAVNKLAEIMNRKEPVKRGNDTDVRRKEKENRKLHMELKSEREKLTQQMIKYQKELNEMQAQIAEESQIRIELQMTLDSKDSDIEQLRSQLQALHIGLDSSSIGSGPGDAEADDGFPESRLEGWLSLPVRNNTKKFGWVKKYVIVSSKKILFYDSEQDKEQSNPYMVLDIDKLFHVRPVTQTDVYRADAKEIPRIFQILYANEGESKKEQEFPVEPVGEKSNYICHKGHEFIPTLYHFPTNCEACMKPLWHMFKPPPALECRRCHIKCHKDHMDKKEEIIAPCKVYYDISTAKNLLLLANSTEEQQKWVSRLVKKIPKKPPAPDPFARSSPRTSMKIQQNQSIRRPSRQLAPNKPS
structure (smiles),measurement,setting,value
CCN(CC)CCCCNc1ncc2cc(-c3cc(OC)cc(OC)c3)c(NC(=O)NC(C)(C)C)nc2n1,% of control,[1],100%
CC(C)(O)[C@H](F)CN1Cc2cc(NC(=O)c3cnn4cccnc34)c(N3CCOCC3)cc2C1=O,dTM,[2],1.7 K
Cc1ccc(-c2ccc3c(ccc4sc5c(c43)NC[C@@H](C)NC5=O)n2)cn1,% of inhibition,[3],17%
Cc1cc([C@@H](C)Nc2ccccc2C(=O)O)c2nc(N3CCOCC3)cc(=O)n2c1 [AZD-6482],% of control,[4],91%
Cn1cc(-n2cnc3c(NCc4nc5cc(Cl)c(Cl)cc5[nH]4)nc(N4CCOCC4)nc32)cn1,% of inhibition,[5],90.6%
CC[C@@H]1[C@H](F)C(=O)N[C@@H]1COc1nccc2cc(C(N)=O)c(OC)cc12 [ZIMLOVISERTIB],% of inhibition,[6]; at 0.01 µM,14.9%
same,% of inhibition,[6]; at 0.04 µM,0%
same,% of inhibition,[6]; at 0.2 µM,-4.2%
same,% of inhibition,[6]; at 1 µM,14.1%
same,% of inhibition,[6]; at 5 µM,18.6%
Cc1cc(C)cc([C@@H]2c3cc(C)ccc3NC(=O)CN2C(=O)c2ccc(Br)s2)c1,% of activity,[7]; at 1 µM,96.7%
same,% of activity,[7]; at 10 µM,91.3%

# Source: ChEMBL document CHEMBL5465560, “Selectivity Literature for EUbOPEN Chemogenomic Library” (2024)
